Laboratory results from PMC9970282 (Nature chemical biology, 2022).

Tests used:
Experiment in all cases: Competitive kinase engagement in mouse spleen with probe 3 as occupancy probe
Assay type in all cases: in vivo, mice
CDK2 = CDK2 (Mus musculus, UniProt P97377); conditions: 50 mg/kg oral
CDK17 = CDK17 (Mus musculus, UniProt Q8K0D0); conditions: 50 mg/kg oral, probe 3 10 mg/kg s.c., 1 h, p < 0.05
CDK5 = CDK5 (Mus musculus, UniProt P49615); conditions: 50 mg/kg oral, probe 3 10 mg/kg s.c., 1 h, p < 0.05
CDK5, sequence (P49615 whole entry): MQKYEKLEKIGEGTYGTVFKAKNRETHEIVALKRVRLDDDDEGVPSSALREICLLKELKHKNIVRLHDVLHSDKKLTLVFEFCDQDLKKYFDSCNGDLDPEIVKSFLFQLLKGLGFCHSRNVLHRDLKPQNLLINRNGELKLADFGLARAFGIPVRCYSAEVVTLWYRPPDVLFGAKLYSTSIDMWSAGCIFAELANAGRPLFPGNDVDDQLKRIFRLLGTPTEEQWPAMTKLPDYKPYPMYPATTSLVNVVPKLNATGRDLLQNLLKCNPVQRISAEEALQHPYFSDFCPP

CDK17, sequence (Q8K0D0 whole entry): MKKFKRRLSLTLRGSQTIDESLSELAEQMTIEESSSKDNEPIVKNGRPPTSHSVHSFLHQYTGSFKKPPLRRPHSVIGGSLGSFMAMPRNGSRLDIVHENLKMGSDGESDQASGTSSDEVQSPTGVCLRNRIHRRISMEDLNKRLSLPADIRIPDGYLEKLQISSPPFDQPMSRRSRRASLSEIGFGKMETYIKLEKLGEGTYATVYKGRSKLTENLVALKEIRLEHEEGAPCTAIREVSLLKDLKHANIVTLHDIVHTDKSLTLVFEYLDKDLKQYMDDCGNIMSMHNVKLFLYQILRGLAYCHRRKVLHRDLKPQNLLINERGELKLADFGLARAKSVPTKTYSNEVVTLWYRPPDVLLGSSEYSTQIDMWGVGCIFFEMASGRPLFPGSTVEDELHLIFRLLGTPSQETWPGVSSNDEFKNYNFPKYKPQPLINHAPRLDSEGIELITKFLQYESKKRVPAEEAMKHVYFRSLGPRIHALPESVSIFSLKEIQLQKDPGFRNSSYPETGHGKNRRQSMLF

C[C@@]1(O)CCC[C@H]1n1c(=O)c(C(F)F)cc2cnc(NC3CCN(S(C)(=O)=O)CC3)nc21 [PF-06873600]
estimated occupancy of CDK2 in spleen tissue (CDK2; mice, based on competition with probe 3): > 80%
log2 FC of enrichment by probe 3, PF-06873600 vs. vehicle (CDK2; mouse spleen, probe 3 10 mg/kg s.c., 1 h, p < 0.05): < –2
log2 FC of enrichment by probe 3, PF-06873600 vs. vehicle (CDK17): < –2
log2 FC of enrichment by probe 3, PF-06873600 vs. vehicle (CDK5): ~ –1
